Laboratory results: patent publication US20120077737A1, “HEPATITIS C INHIBITOR COMPOUNDS” (priority 2009, published 2012)

How the values were obtained:
[1] = system: HCV genotype 1a subgenomic replicon with NS3 resistance mutation D168V; assay: HCV replicon RNA replication assay, D168V 1a; format: cell-based, HCV genotype 1a (strain H77), Huh-7 cells; details: Hepatitis C virus, Huh-7, 72 h, read-out: D168V 1a Ec50 (nM)
[2] = system: HCV genotype 1b subgenomic replicon with NS3 resistance mutation D168V; assay: HCV replicon RNA replication assay, D168V 1b; format: cell-based, HCV genotype 1b (Con-1), Huh-7 cells; details: Hepatitis C virus, Huh-7, 72 h, read-out: D168V 1b Ec50 (nM)
[3] = system: HCVPV1a subgenomic replicon (wild type 1a); assay: HCV replicon RNA replication assay, wild type 1a; format: cell-based, HCV genotype 1a (strain H77), Huh-7 cells; details: Hepatitis C virus; Table 1; luciferase replicon, Huh-7, 72 h; read-out: WT 1a Ec50
[4] = system: HCVPV1b subgenomic replicon (wild type 1b); assay: HCV replicon RNA replication assay, wild type 1b; format: cell-based, HCV genotype 1b (Con-1), Huh-7 cells; details: Hepatitis C virus; Table 1; luciferase replicon, Huh-7, 72 h; read-out: WT 1b Ec50
[5] = system: HCV genotype 1a subgenomic replicon with NS3 resistance mutation R155K; assay: HCV replicon RNA replication assay, R155K 1a; format: cell-based, HCV genotype 1a (strain H77), Huh-7 cells; details: Hepatitis C virus, Huh-7, 72 h, read-out: R155K 1a Ec50 (nM)

Row | Structure (SMILES) | EC50 [1] [nM] | EC50 [2] [nM] | EC50 [3] [nM] | EC50 [4] [nM] | EC50 [5] [nM]
1 | COc1ccc2c(O[C@@H]3C[C@H]4C(=O)N[C@]5(C(=O)NS(=O)(=O)C6(C)CC6)C[C@H]5/C=C\CCCCC[C@H](NC(=O)c5cnn(CC(F)F)n5)C(=O)N4C3)cc(OC(C)C)nc2c1C [Compound 1010, (2R,6S,12Z,13aS,14aR,16aS)-6-({[2-(2,2-difluoroethyl)-2H-1,2,3-triazol-4-yl]carbonyl}amino)-2-{[7-methoxy-8-methyl-2-(propan-2-yloxy)quinolin-4-yl]oxy}-N-[(1-methylcyclopropyl)sulfonyl]-5,16-dioxo-1,2,3,6,7,8,9,10,11,13a,14,15,16,16a-tetradecahydrocyclopropa[e]pyrrolo[1,2-a][1,4]diazacyclopentadecine-14a(5H)-carboxamide] | 5.6 | 0.26 | 0.3 | 0.37 | 4.6
2 | COc1c(F)ccc2c(O[C@@H]3C[C@H]4C(=O)N[C@]5(C(=O)NS(=O)(=O)C6CC6)C[C@H]5/C=C\CCCCC[C@H](NC(=O)c5ccn(C)n5)C(=O)N4C3)cc(OC(C)C)nc12 [Compound 1016, (2R,6S,12Z,13aS,14aR,16aS)-N-(cyclopropylsulfonyl)-2-{[7-fluoro-8-methoxy-2-(propan-2-yloxy)quinolin-4-yl]oxy}-6-{[(1-methyl-1H-pyrazol-3-yl)carbonyl]amino}-5,16-dioxo-1,2,3,6,7,8,9,10,11,13a,14,15,16,16a-tetradecahydrocyclopropa[e]pyrrolo[1,2-a][1,4]diazacyclopentadecine-14a(5H)-carboxamide] | 3.9 | 1 | 1.5 | 1.1 | 7.9
3 | COc1ccc2c(O[C@@H]3C[C@H]4C(=O)N[C@]5(C(=O)NS(=O)(=O)C6(C)CC6)C[C@H]5/C=C\CCCCC[C@H](NC(=O)c5ccn(CC(F)F)n5)C(=O)N4C3)cc(OC(C)C)nc2c1C [Compound 1001, (2R,6S,12Z,13aS,14aR,16aS)-6-({[1-(2,2-difluoroethyl)-1H-pyrazol-3-yl]carbonyl}amino)-2-{[7-methoxy-8-methyl-2-(propan-2-yloxy)quinolin-4-yl]oxy}-N-[(1-methylcyclopropyl)sulfonyl]-5,16-dioxo-1,2,3,6,7,8,9,10,11,13a,14,15,16,16a-tetradecahydrocyclopropa[e]pyrrolo[1,2-a][1,4]diazacyclopentadecine-14a(5H)-carboxamide] | 0.78 | 0.1 | 0.22 | 0.17 | 0.96
4 | COc1c(F)ccc2c(O[C@@H]3C[C@H]4C(=O)N[C@]5(C(=O)NS(=O)(=O)C6(C)CC6)C[C@H]5/C=C\CCCCC[C@H](NC(=O)c5ccc(C)s5)C(=O)N4C3)cc(OC(C)C)nc12 [Compound 1028, (2R,6S,12Z,13aS,14aR,16aS)-2-{[7-fluoro-8-methoxy-2-(propan-2-yloxy)quinolin-4-yl]oxy}-N-[(1-methylcyclopropyl)sulfonyl]-6-{[(5-methylthiophen-2-yl)carbonyl]amino}-5,16-dioxo-1,2,3,6,7,8,9,10,11,13a,14,15,16,16a-tetradecahydrocyclopropa[e]pyrrolo[1,2-a][1,4]diazacyclopentadecine-14a(5H)-carboxamide] | 5.5 | 0.52 | 1.1 | 0.69 | 6.5
5 | COc1ccc2c(O[C@@H]3C[C@H]4C(=O)N[C@]5(C(=O)NS(=O)(=O)C6CC6)C[C@H]5/C=C\CCCCC[C@H](NC(=O)c5ccn(CC(F)F)n5)C(=O)N4C3)cc(OC(C)C)nc2c1C [Compound 1011, (2R,6S,12Z,13aS,14aR,16aS)-N-(cyclopropylsulfonyl)-6-({[1-(2,2-difluoroethyl)-1H-pyrazol-3-yl]carbonyl}amino)-2-{[7-methoxy-8-methyl-2-(propan-2-yloxy)quinolin-4-yl]oxy}-5,16-dioxo-1,2,3,6,7,8,9,10,11,13a,14,15,16,16a-tetradecahydrocyclopropa[e]pyrrolo[1,2-a][1,4]diazacyclopentadecine-14a(5H)-carboxamide] | 6.4 | 0.24 | 0.43 | 0.35 | 3.9
6 | COc1ccc2c(O[C@@H]3C[C@H]4C(=O)N[C@]5(C(=O)NS(=O)(=O)C6(C)CC6)C[C@H]5/C=C\CCCCC[C@H](NC(=O)c5ccn(CC(=O)N(C)C)n5)C(=O)N4C3)cc(OC(C)C)nc2c1C [Compound 1017, (2R,6S,12Z,13aS,14aR,16aS)-6-[({1-[2-(dimethylamino)-2-oxoethyl]-1H-pyrazol-3-yl}carbonyl)amino]-2-{[7-methoxy-8-methyl-2-(propan-2-yloxy)quinolin-4-yl]oxy}-N-[(1-methylcyclopropyl)sulfonyl]-5,16-dioxo-1,2,3,6,7,8,9,10,11,13a,14,15,16,16a-tetradecahydrocyclopropa[e]pyrrolo[1,2-a][1,4]diazacyclopentadecine-14a(5H)-carboxamide] | 2.7 | 1.5 | 1.1 | 1.1 | 1.2
7 | COc1ccc2c(O[C@@H]3C[C@H]4C(=O)N[C@]5(C(=O)NS(=O)(=O)C6(C)CC6)C[C@H]5/C=C\CCCCC[C@H](NC(=O)c5ccn(CC(F)(F)F)n5)C(=O)N4C3)cc(OC(C)C)nc2c1C [Compound 1005, (2R,6S,12Z,13aS,14aR,16aS)-2-{[7-methoxy-8-methyl-2-(propan-2-yloxy)quinolin-4-yl]oxy}-N-[(1-methylcyclopropyl)sulfonyl]-5,16-dioxo-6-({[1-(2,2,2-trifluoroethyl)-1H-pyrazol-3-yl]carbonyl}amino)-1,2,3,6,7,8,9,10,11,13a,14,15,16,16a-tetradecahydrocyclopropa[e]pyrrolo[1,2-a][1,4]diazacyclopentadecine-14a(5H)-carboxamide] | 1.4 | 0.17 | 0.18 | 0.16 | 0.85
8 | Cc1ccc2c(O[C@@H]3C[C@H]4C(=O)N[C@]5(C(=O)NS(=O)(=O)C6(C)CC6)C[C@H]5/C=C\CCCCC[C@H](NC(=O)c5ccn(C)n5)C(=O)N4C3)cc(OC(C)C)nc2c1Br [Compound 1024, (2R,6S,12Z,13aS,14aR,16aS)-2-{[8-bromo-7-methyl-2-(propan-2-yloxy)quinolin-4-yl]oxy}-N-[(1-methylcyclopropyl)sulfonyl]-6-{[(1-methyl-1H-pyrazol-3-yl)carbonyl]amino}-5,16-dioxo-1,2,3,6,7,8,9,10,11,13a,14,15,16,16a-tetradecahydrocyclopropa[e]pyrrolo[1,2-a][1,4]diazacyclopentadecine-14a(5H)-carboxamide] | 1.9 | 0.09 | 0.1 | 0.13 | 9.3
